This note sets out measurements from paper PMC3931136 (Scientific Reports, 2014).

The subject of this experiment is S. suis BgaC. The experiment is described as follows: p-nitrophenol release, absorbance at […] nm. It counts as biochemical, Streptococcus suis. The following applies: pH 5.5, 42 °C, 30 min (stated optimum); PBS, 10 mM MgCl2, 10 mM DTT.

What is called Km is the substrate concentration at which the rate is half of its maximum. As to `O=[N+]([O-])c1ccc(O[C@@H]2O[C@H](CO)[C@H](O)[C@H](O)[C@H]2O)cc1` [pNPG, p-nitrophenyl-β-galactopyranoside], the Km came out at 398 µM.
